Laboratory results from publication PMC7714403 (JCI Insight, 2020).

Tests used:
CHK1 = CHK1 (Homo sapiens, UniProt O14757); experiment: KiNativ, OCI cells live cell; format: cell-based; conditions: labeling site Lys2, peptide DIKPENLLLDER
IKKe = IKKe (Homo sapiens, UniProt Q14164); experiment: KiNativ, OCI cells live cell; format: cell-based; conditions: 2 h, labeling site Lys1, peptide […]
MAP4K5 = MAP4K5 (Homo sapiens, UniProt Q9Y4K4); experiment: KiNativ, OCI cells live cell; format: cell-based; conditions: 2 h
AGK = AGK (Homo sapiens, UniProt Q53H12); experiment: KiNativ, OCI cells live cell; format: cell-based; conditions: 2 h, labeling site ATP, peptide […]
NEK2 = NEK2 (Homo sapiens, UniProt P51955); experiment: KiNativ, OCI cells live cell; format: cell-based; conditions: 2 h, labeling site Lys2, peptide […]
BTK = BTK (Homo sapiens, UniProt Q06187); experiment: KdELECT binding assay; design: purchased Eurofins DiscoverX
CaMK2d = CaMK2d (Homo sapiens, UniProt Q13557); experiment: KiNativ, OCI cells live cell; format: cell-based; conditions: 2 h, labeling site Lys1, peptide […]
PIP4K2A = PIP4K2A (Homo sapiens, UniProt P48426); experiment: KiNativ, OCI cells live cell; format: cell-based; conditions: 2 h, labeling site ATP, peptide […]
LKB1 = LKB1 (Homo sapiens, UniProt Q15831); experiment: KiNativ, OCI cells live cell; format: cell-based; conditions: 2 h, labeling site Lys2, peptide […]
ARAF = ARAF (Homo sapiens, UniProt P10398); experiment: KiNativ, OCI cells live cell; format: cell-based; conditions: 2 h, labeling site Lys2, peptide […]
CDK2 = CDK2 (Homo sapiens, UniProt P24941); experiment: KiNativ, OCI cells live cell; format: cell-based
CDK5 = CDK5 (Homo sapiens, UniProt Q00535); experiment: KiNativ, OCI cells live cell; format: cell-based; conditions: 2 h
FLT3 ITD/F691L = FLT3 ITD/F691L (Homo sapiens, UniProt P36888, F691L/ITD); experiment: KdELECT binding assay
NEK7 = NEK7 (Homo sapiens, UniProt Q8TDX7); experiment: KiNativ, OCI cells live cell; format: cell-based; conditions: 2 h, labeling site Lys1, peptide […]
ATR = ATR (Homo sapiens, UniProt Q13535); experiment: KiNativ, OCI cells live cell; format: cell-based; conditions: 2 h, labeling site ATP, peptide […]
OCI-AML3-Luc+ cells = experiment: OCI-AML3-Luc+ xenograft model; format: in vivo, NSG mice
Method: (§1) Engraftment and growth of leukemic cells were monitored by noninvasive bioluminescence imaging in cell line xenograft models, as previously done ([47]). Details on the cell engraftment and dosing in mouse models are provided in the Supplemental Methods.
(§2) Luc+ or MOLM13-Res -Luc+ cells, 0.5 million OCI-AML3 -Luc+ cells, and 10,000 Ba/F3-FLT3-ITD/F691L-GFP+ cells. Weekly tumor engraftment of cell line xenograft models were assessed after injection of D-luciferin (150mg/kg i.p.; Gold Biotechnology, Inc, St. Louis, MO) on Xenogen IVIS-200 imaging system (Perkin Elmer, Waltham, MA) or GFP monitoring by peripheral blood via BD LSR II flow cytometer (BD Biosciences, San Jose, CA). Signal intensity was analyzed using Living Image Software (PerkinElmer) or FlowJo v10.0.08 software (FlowJo, LLC, Ashland, OR). Mice were randomized to treatment groups based on signal intensity and leukemia burden. Drug treatments were started on days 3, 7, or 13 after cell injection in OCI-AML3, MOLM13, and MOLM13-Res xenografts, respectively. […]
All mice were observed daily and humanely euthanized when showing signs of progressive disease including, hind limb paralysis, weight loss more than 20%, and lethargy. All animal studies were approved by the OSU Institutional Animal Care and Use Committee. […]
Cells were then fixed on ice with ice-cold 70% ethanol for 30 minutes . Cells were either stored at -20°C for up to 1 month or processed immediately. Cells were spun down at 450 x g for 10 minutes and stained

MARK2, MARK3 = experiment: KiNativ, OCI cells live cell; format: cell-based, human; conditions: labeling site Lys2, peptide DLKAENLLLDADMNIK
CDK7 = CDK7 (Homo sapiens, UniProt P50613); experiment: KiNativ, OCI cells live cell; format: cell-based; conditions: 2 h, labeling site Lys2, peptide […]
TYK2 domain2 = molecular target: T1, TYK2 domain2 (Homo sapiens, UniProt P29597); experiment: KiNativ, OCI cells live cell; format: cell-based
T1 construct: TYK2 domain2

FLT3 D835H = molecular target: T2, FLT3 D835H (Homo sapiens, UniProt P36888, D835H); experiment: KdELECT binding assay
T2 construct: purchased Eurofins DiscoverX

[1] = test system: Ba/F3-FLT3-ITD/F691L-GFP+ cells; experiment: Ba/F3 FLT3-ITD/F691L-GFP+ xenograft model; format: in vivo, NSG mice; conditions: 60 mg/kg once daily, after 13 days of treatment
Method: as §1
as §2, with “respectively. In murine AML transplantation model, 1 million FLT3-ITD+/-/IDH2-R140Q+/- splenocytes (in house colony) were intravenously injected in male NSG mice. On day 7, mice were started on drug treatments. All mice were observed daily and humanely euthanized when showing signs of progressive disease including, hind limb paralysis, weight loss more than 20%, and lethargy.” for “respectively.”

[2] = 50 mg/kg once daily 5 days/week

Chain of MAP4K5 (Q9Y4K4 whole entry): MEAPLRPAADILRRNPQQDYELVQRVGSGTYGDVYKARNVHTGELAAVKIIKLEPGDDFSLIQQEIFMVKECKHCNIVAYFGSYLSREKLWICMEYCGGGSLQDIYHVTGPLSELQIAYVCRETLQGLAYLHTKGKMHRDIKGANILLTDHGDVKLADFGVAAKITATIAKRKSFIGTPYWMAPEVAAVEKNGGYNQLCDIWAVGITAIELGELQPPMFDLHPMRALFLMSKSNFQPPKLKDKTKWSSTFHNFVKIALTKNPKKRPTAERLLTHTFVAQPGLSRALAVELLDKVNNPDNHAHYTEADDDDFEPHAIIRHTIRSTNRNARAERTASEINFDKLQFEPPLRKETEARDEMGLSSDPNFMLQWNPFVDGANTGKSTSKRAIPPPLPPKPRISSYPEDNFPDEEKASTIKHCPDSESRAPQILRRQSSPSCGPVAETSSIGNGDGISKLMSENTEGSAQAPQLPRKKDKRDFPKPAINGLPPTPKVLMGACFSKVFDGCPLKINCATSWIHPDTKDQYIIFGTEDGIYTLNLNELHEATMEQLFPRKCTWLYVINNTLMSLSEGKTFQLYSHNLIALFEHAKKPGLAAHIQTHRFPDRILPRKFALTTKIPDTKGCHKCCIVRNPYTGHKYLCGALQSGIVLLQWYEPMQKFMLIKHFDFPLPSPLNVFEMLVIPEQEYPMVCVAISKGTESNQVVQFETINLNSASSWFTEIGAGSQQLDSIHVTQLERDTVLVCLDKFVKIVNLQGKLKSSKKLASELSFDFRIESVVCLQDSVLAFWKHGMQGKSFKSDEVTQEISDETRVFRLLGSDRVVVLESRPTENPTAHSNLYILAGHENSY
Chain of CDK5 (Q00535 whole entry): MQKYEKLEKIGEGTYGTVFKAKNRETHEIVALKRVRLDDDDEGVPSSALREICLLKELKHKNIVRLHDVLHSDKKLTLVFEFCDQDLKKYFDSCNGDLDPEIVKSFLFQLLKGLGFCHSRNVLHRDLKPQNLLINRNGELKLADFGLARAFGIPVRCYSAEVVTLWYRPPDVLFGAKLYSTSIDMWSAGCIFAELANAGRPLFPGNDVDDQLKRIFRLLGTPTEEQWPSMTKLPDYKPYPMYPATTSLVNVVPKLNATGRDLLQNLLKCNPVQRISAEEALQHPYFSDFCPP
T1 sequence (P29597 whole entry, the tested form may be a part): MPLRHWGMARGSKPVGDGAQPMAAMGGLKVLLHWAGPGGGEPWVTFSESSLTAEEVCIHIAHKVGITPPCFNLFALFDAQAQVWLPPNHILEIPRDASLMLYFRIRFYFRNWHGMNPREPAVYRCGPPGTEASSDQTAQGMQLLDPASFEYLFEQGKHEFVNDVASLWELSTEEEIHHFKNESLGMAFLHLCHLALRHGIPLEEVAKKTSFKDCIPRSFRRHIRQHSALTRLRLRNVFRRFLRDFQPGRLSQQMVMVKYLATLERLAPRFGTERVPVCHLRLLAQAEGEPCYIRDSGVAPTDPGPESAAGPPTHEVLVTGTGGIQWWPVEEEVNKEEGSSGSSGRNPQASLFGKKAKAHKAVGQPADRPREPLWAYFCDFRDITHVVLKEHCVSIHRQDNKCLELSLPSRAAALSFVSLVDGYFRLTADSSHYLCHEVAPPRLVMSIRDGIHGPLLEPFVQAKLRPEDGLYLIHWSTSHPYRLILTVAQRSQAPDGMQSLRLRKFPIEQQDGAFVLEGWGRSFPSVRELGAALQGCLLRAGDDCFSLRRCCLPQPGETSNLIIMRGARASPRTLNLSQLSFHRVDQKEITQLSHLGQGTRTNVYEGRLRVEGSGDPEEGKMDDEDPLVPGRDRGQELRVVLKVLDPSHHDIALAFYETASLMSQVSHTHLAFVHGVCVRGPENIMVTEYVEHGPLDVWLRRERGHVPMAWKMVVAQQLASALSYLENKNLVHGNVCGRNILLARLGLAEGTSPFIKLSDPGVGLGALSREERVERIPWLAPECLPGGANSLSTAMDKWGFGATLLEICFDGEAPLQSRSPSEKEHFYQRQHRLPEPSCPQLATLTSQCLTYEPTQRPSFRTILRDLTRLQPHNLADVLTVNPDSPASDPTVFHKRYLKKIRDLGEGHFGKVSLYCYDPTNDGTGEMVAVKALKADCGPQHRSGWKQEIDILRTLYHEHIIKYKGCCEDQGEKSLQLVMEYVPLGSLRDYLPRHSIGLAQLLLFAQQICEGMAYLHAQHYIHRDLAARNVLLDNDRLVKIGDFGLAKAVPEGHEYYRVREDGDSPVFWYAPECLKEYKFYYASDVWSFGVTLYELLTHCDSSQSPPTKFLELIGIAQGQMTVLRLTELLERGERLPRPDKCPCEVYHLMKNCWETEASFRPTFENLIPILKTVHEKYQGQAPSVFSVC
Chain of IKKe (Q14164 whole entry): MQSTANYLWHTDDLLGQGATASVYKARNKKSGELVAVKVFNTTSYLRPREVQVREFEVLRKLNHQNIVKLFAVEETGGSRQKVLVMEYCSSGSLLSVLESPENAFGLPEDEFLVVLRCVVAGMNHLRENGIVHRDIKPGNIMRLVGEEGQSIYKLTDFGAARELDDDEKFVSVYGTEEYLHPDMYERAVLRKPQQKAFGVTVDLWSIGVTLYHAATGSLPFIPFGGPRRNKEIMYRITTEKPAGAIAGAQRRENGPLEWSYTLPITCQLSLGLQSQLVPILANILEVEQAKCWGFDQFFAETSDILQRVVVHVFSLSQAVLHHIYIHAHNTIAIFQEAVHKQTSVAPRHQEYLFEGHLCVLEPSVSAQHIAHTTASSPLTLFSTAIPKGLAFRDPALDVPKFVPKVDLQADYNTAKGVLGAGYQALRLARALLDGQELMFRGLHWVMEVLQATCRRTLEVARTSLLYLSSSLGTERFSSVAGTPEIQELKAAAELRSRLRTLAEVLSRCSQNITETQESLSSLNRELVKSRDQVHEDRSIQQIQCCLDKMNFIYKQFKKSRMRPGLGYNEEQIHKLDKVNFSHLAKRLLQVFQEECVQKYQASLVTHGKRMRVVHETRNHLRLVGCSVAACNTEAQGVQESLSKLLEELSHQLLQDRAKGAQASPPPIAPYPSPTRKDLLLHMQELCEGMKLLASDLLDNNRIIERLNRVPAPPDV
Chain of PIP4K2A (P48426 whole entry): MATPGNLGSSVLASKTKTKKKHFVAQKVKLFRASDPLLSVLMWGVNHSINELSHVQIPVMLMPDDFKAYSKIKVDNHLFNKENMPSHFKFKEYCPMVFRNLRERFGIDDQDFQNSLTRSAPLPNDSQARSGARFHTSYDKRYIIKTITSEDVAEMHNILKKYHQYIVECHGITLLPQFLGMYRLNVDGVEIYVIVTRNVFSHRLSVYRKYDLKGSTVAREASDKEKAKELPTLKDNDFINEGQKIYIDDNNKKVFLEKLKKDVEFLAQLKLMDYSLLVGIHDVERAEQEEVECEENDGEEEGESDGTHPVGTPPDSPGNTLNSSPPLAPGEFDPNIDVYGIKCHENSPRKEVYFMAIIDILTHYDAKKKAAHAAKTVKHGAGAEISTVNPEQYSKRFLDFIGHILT
Chain of CDK7 (P50613 2-346 limits assumed): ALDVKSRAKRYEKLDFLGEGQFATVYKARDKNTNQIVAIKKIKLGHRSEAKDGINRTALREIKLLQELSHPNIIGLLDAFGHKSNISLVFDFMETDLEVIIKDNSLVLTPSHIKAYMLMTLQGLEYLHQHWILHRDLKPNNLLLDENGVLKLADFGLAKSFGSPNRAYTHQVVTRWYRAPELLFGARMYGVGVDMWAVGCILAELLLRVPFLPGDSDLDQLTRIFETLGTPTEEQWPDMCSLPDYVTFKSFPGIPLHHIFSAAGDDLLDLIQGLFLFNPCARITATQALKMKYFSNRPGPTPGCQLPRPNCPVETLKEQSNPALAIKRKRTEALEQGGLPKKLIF
Chain of CDK7 (P51946 whole entry partner, the tested form may be a part): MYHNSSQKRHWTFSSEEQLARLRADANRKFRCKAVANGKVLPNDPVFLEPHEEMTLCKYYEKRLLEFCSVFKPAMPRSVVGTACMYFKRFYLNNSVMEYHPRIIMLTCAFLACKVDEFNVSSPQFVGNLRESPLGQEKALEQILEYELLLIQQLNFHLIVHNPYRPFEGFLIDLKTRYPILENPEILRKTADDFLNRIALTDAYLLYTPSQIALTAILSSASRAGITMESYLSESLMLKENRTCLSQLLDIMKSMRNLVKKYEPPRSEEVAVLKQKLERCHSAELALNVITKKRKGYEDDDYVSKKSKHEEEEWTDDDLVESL
Chain of CDK7 (P51948 whole entry partner, the tested form may be a part): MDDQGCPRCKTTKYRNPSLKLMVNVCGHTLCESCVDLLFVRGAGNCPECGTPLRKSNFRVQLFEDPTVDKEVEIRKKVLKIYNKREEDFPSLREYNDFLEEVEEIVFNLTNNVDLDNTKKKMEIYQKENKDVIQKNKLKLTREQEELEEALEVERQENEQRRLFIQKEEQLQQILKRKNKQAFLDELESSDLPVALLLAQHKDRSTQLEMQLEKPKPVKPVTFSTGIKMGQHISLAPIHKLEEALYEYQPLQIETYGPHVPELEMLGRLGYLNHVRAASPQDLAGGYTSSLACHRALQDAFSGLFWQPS
Chain of CaMK2d (Q13557 whole entry): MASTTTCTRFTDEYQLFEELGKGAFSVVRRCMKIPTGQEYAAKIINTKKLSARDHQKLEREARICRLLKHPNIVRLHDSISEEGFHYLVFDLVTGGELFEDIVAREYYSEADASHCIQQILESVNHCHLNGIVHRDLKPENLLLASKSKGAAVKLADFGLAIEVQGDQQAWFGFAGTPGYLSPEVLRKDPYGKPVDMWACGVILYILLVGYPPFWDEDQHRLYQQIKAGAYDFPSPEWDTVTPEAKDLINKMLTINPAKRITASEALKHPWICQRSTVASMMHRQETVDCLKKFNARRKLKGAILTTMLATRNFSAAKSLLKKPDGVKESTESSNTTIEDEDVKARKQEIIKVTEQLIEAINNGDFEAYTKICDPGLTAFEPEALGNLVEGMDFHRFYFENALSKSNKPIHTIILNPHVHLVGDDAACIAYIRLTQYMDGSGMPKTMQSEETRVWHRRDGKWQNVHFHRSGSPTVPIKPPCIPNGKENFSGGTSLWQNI

Structure (SMILES): CN1CCN(Cc2ccc(Nc3ncc(Cl)c(Nc4ccccc4S(=O)(=O)N(C)C)n3)cc2)CC1 [TP-0903]
- Inhibition (CHK1): 29.7%
- inhibition at 0.1 µM (IKKe): 30.5%
- inhibition at 0.1 µM (MAP4K5; labeling site Lys1, peptide NVHTGELAAVKIIK): 28.4%
- inhibition at 0.1 µM (MAP4K5; labeling site Lys2, peptide DIKGANILLTDHGDVK): 60.8%
- inhibition at 0.1 µM (AGK): -26.9%
- inhibition at 0.1 µM (NEK2): 23.6%
- Kd (BTK): 13 nM
- inhibition at 0.1 µM (CaMK2d): 34.5%
- inhibition at 0.1 µM (PIP4K2A): -17.8%
- inhibition at 0.1 µM (LKB1): 25.7%
- inhibition at 0.1 µM (ARAF): -0.7%
- Inhibition (CDK2; labeling site Lys1, peptide LTGEVVALKK): 37.1%
- Inhibition (CDK2; labeling site Lys2, peptide DLKPQNLLINTEGAIK): 41.4%
- inhibition at 0.1 µM (CDK5; labeling site Lys1, peptide NRETHEIVALKR): 57%
- inhibition at 0.1 µM (CDK5; labeling site Lys2, peptide DLKPQNLLINR): 55.5%
- Kd (FLT3 ITD/F691L): 1.9 nM
- inhibition at 0.1 µM (NEK7): -38.8%
- inhibition at 0.1 µM (ATR): 13%
- Outgrowth of leukemia cells (bioluminescence) (OCI-AML3-Luc+ cells; [2]): suppressed the outgrowth of leukemia cells
- Spleen weight at study endpoint (mean ± SD) (OCI-AML3-Luc+ cells; [2]): 181 ± 21 mg
- Survival prolonged compared with vehicle (OCI-AML3-Luc+ cells; 50 mg/kg once daily 5 days/week up to 6 weeks): 9 days
- Inhibition (MARK2, MARK3): 50.8%
- inhibition at 0.1 µM (CDK7): 95.7%
- Inhibition (TYK2 domain2; labeling site Activation Loop, peptide IGDFGLAKAVPEGHEYYR): -38.7%
- Inhibition (TYK2 domain2; labeling site Lys1, peptide VSLYCYDPTNDGTGEMVAVKALK): 21.1%
- Kd (FLT3 D835H): 1.9 nM
- Peripheral blood GFP signal compared with gilteritinib [1]: significantly lower
